Here are results for two molecules from article PMC7270110, “Labeled oxytocin administered via the intranasal route reaches the brain in rhesus macaques” (Nature Communications, 2020).

Data set [1] can be described thus: Plasma concentration of endogenous d0OT by LC-MS/MS. It is filed as in vivo, rhesus macaques (Macaca mulatta). The following applies: LLOQ 10 pg/ml, MDL 4 pg/ml. The protocol:
(§1) The six monkeys were dosed once a week, for 4 consecutive weeks, with each DOSE–ROUTE condition of d5OT (40 IU IN, 40 IU IV, 80 IU IN, or 80 IU IV). Each DOSE–ROUTE condition was assigned using a Latin square randomization (Table 4). Sessions were separated by at least 6 days. During each session, CSF (750 µl) and blood (5 ml) samples were drawn immediately prior to (T = 0) and following (T = 60 and 120 min) each administration of d5OT.
Chemicals: An unlabeled standard for d0OT and deuterated standard for d5OT were purchased from Sigma-Aldrich (St. Louis, MO); d10OT was purchased for use as an internal standard through a custom order from Cayman Chemical (Ann Arbor, MI). All other reagents were commercially available, and we purchased LC or MS grade chemicals when available. Plasma and CSF sample preparation for LC–MS/MS analysis. […]
(§2) Solid-phase extraction (SPE) columns (Strata-X-Drug B, 60 mg/6 ml, Phenomenex, Torrance, CA) were conditioned prior to use by adding 2 ml of methanol, followed by 2 ml of water, and 2 ml of 0.2 M ammonium acetate (pH 3.0) in water; each was allowed to flow through by gravity before the next was added. […] After a 15 min incubation at 4 °C, plates were filtered into microtiter plates (Shimadzu, Kyoto, Japan) using a positive pressure manifold (8 min at 5 psi, followed by 15 s at 15 psi; Biotage, Uppsala, Sweden), and analyzed. […]

A short description of data set [2]: Plasma concentration of d5OT by LC-MS/MS after IN or IV d5OT. The following applies: for level at 1 h: rhesus monkey, plasma, 60 min, present study. In kind it is in vivo, rhesus macaques (Macaca mulatta). The protocol: as §1
(§3) Monkeys were divided into three groups, each with two monkeys; each group received the following in a terminal study at the 5th week: Group 1 (Monkeys ID# 1 and ID# 5) received 40 IU of d5OT IN, Group 2 received 80 IU of d5OT IN (Monkeys ID# 2 and ID# 4) and Group 3 received 80 IU of d5OT IV (Monkeys ID# 3 and ID# 6). Animals were perfused on average, 140 ± 7 (mean ± SD) min after d5OT administration (range = 135–149 min) (Table 4). Plasma and CSF were drawn just before administration of d5OT, at the midpoint between d5OT administration and perfusion (~60 min post-d5OT administration), and just before perfusion.
Chemicals: An unlabeled standard for d0OT and deuterated standard for d5OT were purchased from Sigma-Aldrich (St. Louis, MO); d10OT was purchased for use as an internal standard through a custom order from Cayman Chemical (Ann Arbor, MI). All other reagents were commercially available, and we purchased LC or MS grade chemicals when available. Plasma and CSF sample preparation for LC–MS/MS analysis. CSF and plasma samples were collected as described above. […]
as §2

The nature of data set [3]: CSF concentration of d5OT by LC-MS/MS after IN or IV d5OT. In kind it is in vivo, rhesus macaques (Macaca mulatta). The protocol: as §1, §3
Chemicals: An unlabeled standard for d0OT and deuterated standard for d5OT were purchased from Sigma-Aldrich (St. Louis, MO); d10OT was purchased for use as an internal standard through a custom order from Cayman Chemical (Ann Arbor, MI). All other reagents were commercially available, and we purchased LC or MS grade chemicals when available. Plasma and CSF sample preparation for LC–MS/MS analysis. CSF and plasma samples were collected as described above. Using 15 ml polystyrene tubes, 1.0 ml of each standard, quality control (QC), or plasma sample was combined with 30 µl of internal standard mixture (34 ng/ml d10OT in 50:50 acetonitrile (ACN):water, v–v) and incubated for 20 min on ice. Volumes used for CSF samples ranged from 0.4 to 1.0 ml, depending on sample availability. CSF samples <1.0 ml were brought to a final volume of 1.0 ml using charcoal-stripped serum, prior to addition of internal standard. To each tube, 2 ml of ice-cold ACN was added, vortexed thoroughly, and centrifuged at 2500 × g for 10 min at 4 °C. The supernatants were transferred to new 13 mm × 100 mm polypropylene tubes and evaporated in a 37 °C water bath, under forced air, to a volume of <1 ml. We then added 5.5 ml of 0.2 M ammonium acetate (pH 3.0) in water, capped the tubes and mixed by inversion, before centrifugation at 2500 × g for 10 min at 4 °C.
as §2, with “added. The supernatants from the previous step were then added to SPE columns (one supernatant per column) by pouring. Columns were washed with 2 ml ammonium acetate (pH 3.0) in water, followed by 2 ml water and 2 ml ACN, and dried for 5 min in a vacuum manifold (5 in Hg; Millipore, Burlington, MA). OT was eluted with 2 × 1 ml 0.2% ammonium hydroxide in methanol into 12 mm × 75 mm polypropylene tubes and evaporated to dryness under forced air in a 37 °C water bath.” for “added.”

For data set [4] the following is noted: LOQ 10 pg/ml, cited from earlier work. The protocol:
Further, at 60 min in the previous study, the CSF concentrations of d5OT after IN delivery of 80 IU were highly variable (11, 16, 67, and 221 pg/ml), and would have been detectable in only two of the monkeys using the a ... || page 8: 4. It is surprising that no CSF d5 OT was detected at 60 or 120 minutes in CSF after IN administration. […] In our previous study (Lee et al., Mol Psychiatry 2018), after IN administration, CSF d5OT concentration at 60 minutes was quantified in 4 monkeys as follows: 11.28, 15.99, 67.65 and 221.62 pg/ml. In this previous study, the limit of quantification (LOQ) for d5OT was 10 pg/ml. The LOQ of d5OT in the present study was 100 pg/ml and the method dete ...

Values joined by “and” are separate entries in the source; they are usually repeats but may differ in a detail not shown here. Equal entries are not always repeated. Where two headings read alike, the source gives them in different places.

Take `CC[C@H](C)[C@@H]1NC(=O)[C@H](Cc2ccc(O)cc2)NC(=O)[C@@H](N)CSSC[C@@H](C(=O)N2CCC[C@H]2C(=O)N[C@@H](CC(C)C)C(=O)NCC(N)=O)NC(=O)[C@H](CC(N)=O)NC(=O)[C@H](CCC(N)=O)NC1=O` [OT, oxytocin]: the d0OT in plasma entry in data set [1] is “not detected”.

Regarding `CC[C@H](C)[C@@H]1NC(=O)[C@H](Cc2ccc(O)cc2)NC(=O)[C@@H](N)CSSC[C@@H](C(=O)N2CCC[C@H]2C(=O)N[C@@H](CC(C)C)C(=O)NCC(N)=O)NC(=O)[C@H](CC(N)=O)NC(=O)[C@H](CCC(N)=O)NC1=O` [d5OT], the “Concentrations of d5OT in the plasma” value in data set [2] (after 40 IU IN, all concentrations, LOQ 100 pg/ml) was “below the level of quantification”. Moreover, the level at 1 h is 0.284 ± 0.288 ng/mL in data set [2] (80 IU IN condition, read-out: Plasma d5OT) and 1.99 ± 0.476 ng/mL in data set [2] (IV condition, read-out: Mean plasma concentration of d5OT). The “d5OT in CSF” value in data set [3] (120 min after IV administration (40 and 80 IU), LC-MS/MS, MDL 38 pg/ml) is “no d5OT detected”; in data set [3] (after IN administration of either dose (40 or 80 IU), any timepoint, LC-MS/MS, MDL 38 pg/ml), “no d5OT detected”; in data set [3] (just prior to necropsy, after 80 IU IV, single monkey, LOQ 100 pg/ml), “below the limit of quantification”; in data set [3] (timepoint 60 min after 40 IU IV, N = 6, LC-MS/MS, LOQ 100 pg/ml, MDL 38 pg/ml) it was “detected”; in data set [3] (timepoint 60 min after 80 IU IV, N = 6, LC-MS/MS, LOQ 100 pg/ml, MDL 38 pg/ml), “detected”. Further, in data set [4] (60 min after IN delivery of 80 IU, individual monkeys, previous study), the “CSF concentrations of d5OT” value is 11 pg/mL and 16 pg/mL and 67 pg/mL and 221 pg/mL. The “CSF d5OT concentration” value in data set [4] (60 minutes after IN administration, 4 individual monkeys, ref Lee et al., Mol Psychiatry 2018) is 11.28 pg/mL and 15.99 pg/mL and 67.65 pg/mL and 221.62 pg/mL.
